Here are results for five compounds from patent US12408604B2, “Method for producing avenanthramide-rich oats using active elicitors” (KOREA RESEARCH INSTITUTE OF BIOSCIENCE AND BIOTECHNOLOGY, priority 2020, dated 2025).

Holding throughout (assay type): in vivo
For one assay, the system named is Choyang oats. Nature of the assay: Production (content) of avenanthramides in germinated oats treated with elicitors, HPLC analysis. The settings on record: for production of avenanthramides compared to control group: Example 3, FIG. 2, SA vs control DW, ABA vs control EtOH; for production of avenanthramides over tested concentrations: Example 5, MJ 10-100 μM, ABA 10-300 μM; for synthesis amount / content of avenanthramides in oats compared to other elicitors: Examples 3 and 4, FIG. 2. The procedure:
In an embodiment of the present invention, a domestic cultivated breed, Choyang oats, was used. The Choyang oat seeds were immersed for 12 hours, and then sterilized at 50° C. for 10 minutes and used. Two sheets of sterile filter paper were laid on a plant culture dish, poured with 7 ml of water, and then the sterilized Choyang oat seeds were placed and cold-treated at 4° C. for two days. The Choyang oat seeds were cultured under culture conditions of 25° C. and a photoperiod of 16L:8D.
Analysis of avenanthramides of germinated oats recovered in Example of the present invention was performed as follows. First, the obtained germinated oats were powdered using liquid nitrogen. 0.1 g of the oat powder was extracted with 1 ml of 80% methanol, and then sonicated at 50° C. for 20 minutes, extracted, and then centrifuged to obtain an oat extract from an upper layer. The extracted filtrate was dried by injecting air, and the dried product was dissolved in 200 μl of 80% methanol, and filtered using 0.2 μm PTFE (hydrophilic, ADVANTEC, Japan), and the sample was used for high-performance liquid chromatography (HPLC) analysis. A pump system used 4 solvent pumps (quaternary pumps), and a column used ZORBAX SB-18 ([…], 4.6×150 mm) from Agilent, and a mobile phase was analyzed by using gradient elution using water (A, 5% acetonitrile, 0.1% formic acid) and acetonitrile. (B, 0.1% formic acid).
After treatment with the elicitors for 3 days, the avenanthramides were harvested and HPLC was performed. The elicitors used at this time were methyl jasmonate (MJ), abscisic acid (ABA), salicylic acid (SA), ethephon (ET), methyl viologen (MV), and chitosan (CHI). DW was used as a solvent for MV, CHI, and SA, and EtOH was used as a solvent for ET, MJ, and ABA. A case of treating only DW and EtOH (0.1%), which are solvents of each elicitor, was set as a control.
Like in Example 3, 10 μM, 20 μM, 25 μM, 50 μM, 75 μM, and 100 μM of MJ and 10 μM, 20 μM, 25 μM, 50 μM, 75 μM, 100 μM, and 300 μM of ABA were treated by concentration on day 2 after germination, recovered on day 5 after germination, then frozen using liquid nitrogen, and stored at −80° C. until extraction and used. As a control, EtOH, a solvent of MJ and ABA, was treated at a concentration of 0.1%. The experimental results were shown in Tables 2 and 3 and FIGS. 4 and 5 below. […]

A further assay concerns AsPAL. Nature of the assay: qRT-PCR transcriptional expression of avenanthramide biosynthetic gene AsPAL in elicitor-treated oats. The settings on record: single elicitor treatment, Example 4, FIG. 3. On the procedure: (§1) Specifically, total RNA was isolated from the recovered oats, and cDNA was synthesized from the isolated total RNA using a First-Strand CDNA Synthesis Kit (Fermantas, Canada). By using the synthesized cDNA, qRT-PCR was performed on avenanthramide biosynthesis-related genes.
(§2) For the qRT-PCR amplification, a Quick Guide from BIOFACT was used, and a process of initial denaturation at 95° C. for 15 minutes and denaturation at 95° C. for 20 seconds, binding and elongation at […] for 40 seconds was repeated 40 times, and melting curve analysis was performed at 65° C. to 95° C. by 1° C. for 0.5 second.
(§3) Primers for avenanthramides biosynthesis genes and actin qRT-PCR used for the experiment were as follows.
(In general: In qPCR the cycle at which signal appears reflects the starting amount.)

In another assay the test system is AsHHT4. Nature of the assay: qRT-PCR transcriptional expression of avenanthramide biosynthetic gene AsHHT4 in elicitor-treated oats. The settings on record: single elicitor treatment, Example 4, FIG. 3. The procedure: as §1, §2, §3
Where [1] appears, read: Example 3, elicitor treated on day 2 after germination induction for 3 days, concentration not given.
Where [2] appears, read: Example 3, total avenanthramides, control DW for MV, CHI, SA, control EtOH for ET, MJ, ABA.
Where [3] appears, read: 10 μM elicitor, control EtOH 0.1%.
Setting [4] is: 10 μM elicitor, treated day 2, recovered day 5 after germination.
Setting [5] is: 20 μM elicitor, control EtOH 0.1%.
Where [6] appears, read: 20 μM elicitor, treated day 2, recovered day 5 after germination.
Where [7] appears, read: 25 μM elicitor, control EtOH 0.1%.
The mark [8] stands for this setting: 25 μM elicitor, treated day 2, recovered day 5 after germination.
The mark [9] stands for this setting: 50 μM elicitor, control EtOH 0.1%.
Setting [10] is: 50 μM elicitor, treated day 2, recovered day 5 after germination.
Where [11] appears, read: 75 μM elicitor, control EtOH 0.1%.
Where [12] appears, read: 75 μM elicitor, treated day 2, recovered day 5 after germination.
Setting [13] is: 100 μM elicitor, control EtOH 0.1%.
Where [14] appears, read: 100 μM elicitor, treated day 2, recovered day 5 after germination.
Where [15] appears, read: 300 μM elicitor, treated day 2, recovered day 5 after germination.

As to `O=C(O)c1ccccc1O` [SA, salicylic acid], the “production of avenanthramides compared to control group” value (shortened to “production … compared to control group”) in the assay with Choyang oats (CHI, MJ) is “slightly decreased”. Besides, in the assay on Choyang oats (setting [1]), the avnA is given as 90.53 mg/kg, FW; the avnB is 149.58 mg/kg, FW; the avnC is on record as 64.34 mg/kg, FW; the total was 304.45 mg/kg, FW. In addition, the Compared to control in the assay with Choyang oats (setting [2]) was −9.38%.

As for `O=P(O)(O)CCCl` [ET, ethephon], in the assay with Choyang oats (setting [1]), the avnA is reported as 86 mg/kg, FW; the avnB is on record as 145.36 mg/kg, FW; the avnC is 74.96 mg/kg, FW; the total is 306.32 mg/kg, FW. In the assay with Choyang oats (setting [2]), the Compared to control is reported as 31.71%.

Regarding `CC/C=C\C[C@H]1C(=O)CC[C@@H]1CC(=O)OC` [MJ, methyl jasmonate], the Compared to control with Choyang oats (setting [3]) is 37.41%; in the assay with Choyang oats (setting [5]) it was 45.03%; in the assay on Choyang oats (setting [7]) it was 57.97%; in the assay on Choyang oats (setting [9]) it was 99.80%; in the assay with Choyang oats (setting [11]), 137.67%; in the assay on Choyang oats (setting [13]), 88.13%. For the same compound, the Compared to control in the assay on Choyang oats (setting [2]) was found to be 150.63%. For the same compound, the avnA with Choyang oats (setting [4]) was 93.22 mg/kg, FW; with Choyang oats (setting [6]) it was 98.32 mg/kg, FW; with Choyang oats (setting [8]) it was 105.54 mg/kg, FW; in the assay with Choyang oats (setting [10]), 147.03 mg/kg, FW; in the assay on Choyang oats (setting [12]), 179.81 mg/kg, FW; in the assay on Choyang oats (setting [14]) it was 138.82 mg/kg, FW. Moreover, the avnA in the assay on Choyang oats (setting [1]) is listed as 190.07 mg/kg, FW. Besides, the avnB in the assay on Choyang oats (setting [4]) was 163.98 mg/kg, FW; in the assay on Choyang oats (setting [6]), 168.66 mg/kg, FW; with Choyang oats (setting [8]), 200.86 mg/kg, FW; with Choyang oats (setting [10]) it was 222.81 mg/kg, FW; with Choyang oats (setting [12]), 268.73 mg/kg, FW; with Choyang oats (setting [14]), 218.47 mg/kg, FW. For the same compound, in the assay on Choyang oats (setting [1]), the avnB is 260.43 mg/kg, FW. The avnC was 77.35 mg/kg, FW in the assay with Choyang oats (setting [4]); 86.12 mg/kg, FW in the assay with Choyang oats (setting [6]); 78.2 mg/kg, FW with Choyang oats (setting [8]); 116.59 mg/kg, FW in the assay on Choyang oats (setting [10]); 130.08 mg/kg, FW with Choyang oats (setting [12]); 100.73 mg/kg, FW in the assay on Choyang oats (setting [14]). For the same compound, the avnC with Choyang oats (setting [1]) is on record as 132.39 mg/kg, FW. Besides, the total in the assay on Choyang oats (setting [4]) is reported as 334.55 mg/kg, FW; in the assay with Choyang oats (setting [6]), 353.1 mg/kg, FW; in the assay with Choyang oats (setting [8]) it was 384.6 mg/kg, FW; in the assay on Choyang oats (setting [10]) it was 486.43 mg/kg, FW; in the assay on Choyang oats (setting [12]), 578.62 mg/kg, FW; in the assay on Choyang oats (setting [14]) it was 458.02 mg/kg, FW. For the same compound, the total with Choyang oats (setting [1]) is 582.89 mg/kg, FW. The “production … compared to control group” value with Choyang oats (CHI, MJ) is given as “significantly increased”. Besides, the “production of avenanthramides over tested concentrations” value in the assay with Choyang oats was “increased at all concentrations”. In addition, the “synthesis amount / content of avenanthramides in oats compared to other elicitors” value with Choyang oats was “most increased”; with Choyang oats (listed as methyl jasmonate), “increased most”. In addition, in the assay on Choyang oats (MJ at a concentration of 75 μM (FIG. 4)), the “largest amount of avenanthramides produced” value is “up to 578.6 mg/kg”. Also, the “production of avenanthramides in oats” value in the assay with Choyang oats (MJ at concentrations of 10 μM to 100 μM) was “significantly increased”. Moreover, in the assay with AsPAL, the “expression of AsPAL gene” value was “increased”. In addition, the “expression of AsHHT4 gene” value in the assay with AsHHT4 is on record as “increased”.

As to `C[n+]1ccc(-c2cc[n+](C)cc2)cc1` [MV, methyl viologen], in the assay on Choyang oats (setting [1]), the avnA is recorded as 95.37 mg/kg, FW; the avnB is given as 169.01 mg/kg, FW; the avnC was 84.14 mg/kg, FW; the total is reported as 348.52 mg/kg, FW. Moreover, in the assay on Choyang oats (setting [2]), the Compared to control worked out at 3.74%.

As for `CC1=CC(=O)CC(C)(C)[C@@]1(O)/C=C/C(C)=C\C(=O)O` [ABA, abscisic acid], the Compared to control with Choyang oats (setting [3]) turned out to be 176.85%; with Choyang oats (setting [5]), 185.33%; in the assay on Choyang oats (setting [7]), 225.40%; in the assay on Choyang oats (setting [9]), 240.45%; with Choyang oats (setting [11]) it was 217.58%; with Choyang oats (setting [13]) it was 184.80%. Also, the Compared to control in the assay with Choyang oats (300 μM elicitor, control EtOH 0.1%) is reported as 189.98%; in the assay with Choyang oats (setting [2]) it was 176.42%. In addition, the avnA is recorded as 177.8 mg/kg, FW with Choyang oats (setting [4]); 185.34 mg/kg, FW in the assay with Choyang oats (setting [6]); 202.56 mg/kg, FW in the assay on Choyang oats (setting [8]); 206.95 mg/kg, FW in the assay with Choyang oats (setting [10]); 211.62 mg/kg, FW in the assay with Choyang oats (setting [12]); 186.05 mg/kg, FW with Choyang oats (setting [14]). Also, the avnA is reported as 193.65 mg/kg, FW with Choyang oats (setting [15]) and 193.78 mg/kg, FW with Choyang oats (setting [1]). The avnB is listed as 299.1 mg/kg, FW in the assay on Choyang oats (setting [4]); 319.67 mg/kg, FW in the assay with Choyang oats (setting [6]); 363.51 mg/kg, FW with Choyang oats (setting [8]); 385.73 mg/kg, FW with Choyang oats (setting [10]); 328.63 mg/kg, FW with Choyang oats (setting [12]); 309.78 mg/kg, FW in the assay with Choyang oats (setting [14]). Besides, the avnB is recorded as 328.02 mg/kg, FW with Choyang oats (setting [15]) and 207.37 mg/kg, FW in the assay with Choyang oats (setting [1]). Moreover, the avnC with Choyang oats (setting [4]) is recorded as 197.11 mg/kg, FW; in the assay with Choyang oats (setting [6]), 189.65 mg/kg, FW; with Choyang oats (setting [8]) it was 226.14 mg/kg, FW; in the assay with Choyang oats (setting [10]) it was 236.19 mg/kg, FW; with Choyang oats (setting [12]) it was 232.94 mg/kg, FW; with Choyang oats (setting [14]), 197.55 mg/kg, FW. The avnC in the assay on Choyang oats (setting [15]) is given as 184.32 mg/kg, FW; with Choyang oats (setting [1]) it was 241.72 mg/kg, FW. The total in the assay with Choyang oats (setting [4]) was 674.01 mg/kg, FW; in the assay on Choyang oats (setting [6]) it was 694.66 mg/kg, FW; with Choyang oats (setting [8]), 792.21 mg/kg, FW; in the assay on Choyang oats (setting [10]), 828.87 mg/kg, FW; in the assay with Choyang oats (setting [12]) it was 773.19 mg/kg, FW; in the assay on Choyang oats (setting [14]), 693.38 mg/kg, FW. Moreover, the total in the assay on Choyang oats (setting [15]) was 705.99 mg/kg, FW; with Choyang oats (setting [1]), 642.87 mg/kg, FW. For the same compound, the “largest amount of avenanthramides produced” value in the assay with Choyang oats (ABA at a 50 μM concentration (FIG. 5)) is reported as “up to 828.8 mg/kg”. In addition, the “production of avenanthramides in oats” value in the assay with Choyang oats (ABA at concentrations of 20 to 300 μM) is “significantly increased”. Besides, in the assay on Choyang oats (Example 3), the “production of avenanthramide C” value is “specifically increased the most”. In the assay with Choyang oats (CHI, MJ), the “production … compared to control group” value is “significantly increased”. Further, in the assay with Choyang oats, the “production of avenanthramides over tested concentrations” value is “increased at all concentrations”. Further, the “synthesis amount / content of avenanthramides in oats compared to other elicitors” value in the assay with Choyang oats is “most increased”; in the assay on Choyang oats (listed as abscisic acid), “increased most”. In the assay with AsPAL, the “expression of AsPAL gene” value was “increased”. The “expression of AsHHT4 gene” value with AsHHT4 was “increased”.
